Values quoted from earlier work in patent publication US20210169839A1, “PEDIATRIC IMMEDIATE-RELEASE FORMULATION OF THE POTASSIUM CHANNEL OPENER EZOGABINE” (Xenon Pharmaceuticals Inc., priority 2019, published 2021).
Read-outs that look alike come from different tables or passages of the source.

How the values were obtained:
KCNQ2-DEE [1] = tested on: KCNQ2-DEE
rodent seizure models = details: battery of rodent seizure models
KCNQ2-DEE [2] = tested on: KCNQ2-DEE; remark: listed apart in the source

In the case of `CCOC(=O)Nc1ccc(NCc2ccc(F)cc2)cc1N` [Ezogabine, 2-amino-4-(4-fluorobenzylamino)-1-ethoxycarbonylaminobenzene], the “improvements in development or cognition” value (KCNQ2-DEE [1]; eight children with KCNQ2-DEE) is given as “all eight patients”, the “Sustained improvement in seizure frequency” value (KCNQ2-DEE [1]; patients with at least weekly seizures) is given as “five of the six” and the anti-convulsant activity (rodent seizure models) is given as “broad spectrum activity”. The serious adverse effects (KCNQ2-DEE [2]; case report of 11 patients) was “No serious adverse effects were observed”, the “improvement in seizures and/or development” value (KCNQ2-DEE [2]; infants treated before six months of age) was “three of the four” and the “improvement in seizures and/or development” value (KCNQ2-DEE [2]; patients treated later than six months of age) was “two of the seven”.
